In data set [1] the target is T1, FGF13/Nav1.7M1830A complex (Homo sapiens, UniProt Q15858+Q92913, M1830A).
T1 construct: Full-length FGF13-1b (aa 1-192) was subcloned into appropriate plasmids; Nav1.7 residues 1780-1977; expressed in transfected cells; host or cells: HEK293 (inferred; the LCA paragraph only says 'cells')
As to the kind of experiment: LCA, CLuc-FGF13/CD4-Nav1.7M1830A-NLuc. The class given is cell-based. The following applies: ZL192 50 μM. From the text: The respective gene ID numbers used in this study are as follows: NM_033642 (human, FGF13-1b) and NM_002977 (human SCN9A). Full-length FGF13-1b (aa 1-192) was subcloned into appropriate plasmids for use in this investigation, unless otherwise noted. For consistency with AlphaFold modeling presented, numbering of point mutations to FGF13-1b are based on the longest FGF13 isoform (FGF13-1a, NM_004114.2). CLuc-FGF13, […]
and constructs expressing the CLuc or the NLuc fragments of Firefly ( Photinus pyralis) luciferase (24) respectively were engineered, mutated (CLuc-FGF13R110A) and sequenced at the Molecular Genomics Core (University of Texas Medical Branch). […]
Twenty-four hours post transfection, cells were trypsinized using TrypLE (Gibco; cat # 12604013), centrifuged at 1750 rpm for 5 min, triturated in medium, and seeded into white clear-bottom 96-well CELLSTAR µClear® plates (Greiner Bio -One; cat # 655073 ) at ~0.8 x 10^5 cells per well in 200 µl of medium. […] The bioluminescence reaction was initiated by injection of 100 μl of D -luciferin substrate (1.5 mg/ml dissolved in PBS) using a Synergy H4 multimode microplate reader (BioTek). Luminescence readings were initiated after 3 s of mild plate shaking and performed at 2 min intervals for 20-30 min with integration times of 0.5 s, and the c ells were maintained throughout the measurements at 37 °C. […]

For data set [2] the following is noted: mouse, in vivo.

Residues, ends and D or L forms follow the SMILES beside them. *: point of attachment. Cbz = O=C(OCc1ccccc1)*; NHPh = c1ccc(N*)cc1; OtBu = CC(C)(C)O*

T1 sequence (Q92913 1-192 isoform Q92913-2, stated change not applied): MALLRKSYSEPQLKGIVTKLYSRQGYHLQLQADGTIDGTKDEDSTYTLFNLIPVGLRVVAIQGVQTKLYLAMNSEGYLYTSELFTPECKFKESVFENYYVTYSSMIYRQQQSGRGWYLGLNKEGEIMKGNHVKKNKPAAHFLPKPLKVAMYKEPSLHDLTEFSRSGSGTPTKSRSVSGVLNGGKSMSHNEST
T1 sequence (Q15858 1791-1988 M1830A): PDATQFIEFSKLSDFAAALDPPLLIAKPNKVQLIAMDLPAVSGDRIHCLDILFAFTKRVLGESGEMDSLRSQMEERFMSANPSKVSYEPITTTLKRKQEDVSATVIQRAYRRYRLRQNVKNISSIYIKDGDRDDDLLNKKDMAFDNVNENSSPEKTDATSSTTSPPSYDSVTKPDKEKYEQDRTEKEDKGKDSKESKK

Regarding `CC(=O)N[C@@H](Cc1ccccc1)C(=O)N[C@@H](CC(C)C)C(=O)N1CCC[C@H]1C(=O)N[C@@H](CCCCN)C(=O)Nc1ccccc1` [ZL192] (Ac-FLPK-NHPh), in data set [1], the “agonist activity against the FGF13/Nav1.7M1830A complex” value is given as “no agonist activity”.

Consider `COC(=O)[C@@H](NC(=O)[C@H](CCC(=O)OC(C)(C)C)NC(=O)[C@H](CC(C)C)NC(=O)[C@@H]1CCCN1C(=O)OCc1ccccc1)C(C)C` [PW164] (Cbz-PLE(OtBu)V-OMe), for which, in data set [2], the brain/plasma ratio is on record as 0 and the “volume of distribution (Vz)” value is reported as 3.8 ± 0.71 L/kg. Besides, the Tmax in data set [2] (15 mg/kg) was 0.083.

Values taken from publication PMC12259270, “Sensory neuron–expressed FGF13 controls nociceptive signaling in diabetic neuropathy models” (The Journal of Clinical Investigation, 2025).
